{"source": "patent US20230278266A1", "about": "“MICRONEEDLE ARRAYS FORMED FROM POLYMER FILMS” (TransDerm, Inc., priority 2007, published 2023)", "system": "fresh human skin explant", "assay": "Gentian violet delivery into excised human skin explant by loaded microneedle array", "format": "in vitro ADME", "conditions": "human skin explant from abdominoplasty, red fluorescence filters", "from_the_text": "FIGS. 3A and 3B show cross-sections of excised human skin showing penetration by needles loaded with gentian violet. […] The sample was sectioned at an angle nearly parallel to the needle array geometry, allowing observation of multiple needles. The delivery device backing material is visible as a layer between the OCT and the skin sample. The left needle is itself cross-sectioned, showing the gentian violet solution loaded into the needle shaft. The middle needle appears to penetrate both the stratum corneum and the epidermis, with the needle tip in full contact with the dermis. A third needle (on the right) is visible but is out of the focal plane. […] The Gentian violet was detected using a fluorescent microscope under red fluorescence filters (excitation 546 nm; emission 580 nm). The skin section was stained with DAPI to allow nuclei visualization.\nA microneedle array in the transdermal delivery device loaded with gentian violet solution was applied to fresh human skin explant (resulting from abdominoplasty procedure) and immediately placed into tissue freezing medium (OCT) and frozen to -28° C. The sample was sectioned at an angle nearly parallel to the needle array geometry, and multiple needles were observed (FIG. 3). In FIG. 3, the microneedle array transdermal delivery device backing material is visible as a layer between the OCT and the skin sample. […]"}
{"compound": "CN(C)c1ccc(C(=C2C=CC(=[N+](C)C)C=C2)c2ccc(N(C)C)cc2)cc1", "note": "[gentian violet]", "values": [{"measurement": "skin layer reached, fluorescence microscopy of skin section", "value": "delivered to human epidermis and dermis"}]}
